Assay results reported in the NIST ThermoML archive (doi:10.1016/j.fluid.2011.06.001).
± gives the expanded uncertainty stated by the source. One block for each molecule: values may come before it.

What was measured:
[1] = Liquid, Closed cell (Static) method
[2] = excess molar enthalpy (molar enthalpy of mixing); xn = mol fraction of the nth substance listed; conditions: 298.15 K, 101 kPa, Liquid, Flow calorimetry

Structure (SMILES): CCC(C)Cl (stereo not drawn) [2-chlorobutane]
vapor or sublimation pressure ([1]; 288.15 K): 13.36 ± 0.035 kPa
vapor or sublimation pressure ([1]; 298.15 K): 20.91 ± 0.049 kPa
vapor or sublimation pressure ([1]; 308.15 K): 31.55 ± 0.068 kPa

Structure (SMILES): CCCCCl [1-chlorobutane]
vapor or sublimation pressure ([1]; 288.15 K): 8.4 ± 0.025 kPa
vapor or sublimation pressure ([1]; 298.15 K): 13.52 ± 0.034 kPa
vapor or sublimation pressure ([1]; 308.15 K): 21.04 ± 0.048 kPa

vapor or sublimation pressure ([1]; 288.15 K): 13 ± 0.034 kPa
vapor or sublimation pressure ([1]; 298.15 K): 20.35 ± 0.048 kPa
vapor or sublimation pressure ([1]; 308.15 K): 30.45 ± 0.066 kPa
Structure (SMILES): CC(C)CCl [1-chloro-2-methylpropane]

excess molar enthalpy ([2]; x1 = 0.1093): 0.00108 ± 0.000191 kcal/mol
excess molar enthalpy ([2]; x1 = 0.2192): 0.00167 ± 0.000191 kcal/mol
excess molar enthalpy ([2]; x1 = 0.3295): 0.00191 ± 0.000191 kcal/mol
excess molar enthalpy ([2]; x1 = 0.4402): 0.00196 ± 0.000191 kcal/mol
excess molar enthalpy ([2]; x1 = 0.5512): 0.0017 ± 0.000191 kcal/mol
excess molar enthalpy ([2]; x1 = 0.6628): 0.00127 ± 0.000191 kcal/mol
excess molar enthalpy ([2]; x1 = 0.7747): 0.000837 ± 0.000191 kcal/mol
excess molar enthalpy ([2]; x1 = 0.8872): 0.000311 ± 0.000191 kcal/mol
Structure (SMILES): CC(C)(C)Cl [2-chloro-2-methylpropane] + CC(C)OC(C)C

Structure (SMILES): CCC(C)Cl (stereo not drawn) [2-chlorobutane] + CC(C)OC(C)C
excess molar enthalpy ([2]; x1 = 0.0909): -0.00368 ± 0.000215 kcal/mol
excess molar enthalpy ([2]; x1 = 0.1819): -0.00717 ± 0.000263 kcal/mol
excess molar enthalpy ([2]; x1 = 0.2726): -0.0104 ± 0.000311 kcal/mol
excess molar enthalpy ([2]; x1 = 0.3636): -0.0125 ± 0.000359 kcal/mol
excess molar enthalpy ([2]; x1 = 0.4546): -0.0137 ± 0.000382 kcal/mol
excess molar enthalpy ([2]; x1 = 0.5454): -0.0144 ± 0.000406 kcal/mol
excess molar enthalpy ([2]; x1 = 0.6365): -0.0143 ± 0.000406 kcal/mol
excess molar enthalpy ([2]; x1 = 0.7273): -0.0127 ± 0.000359 kcal/mol
excess molar enthalpy ([2]; x1 = 0.8182): -0.00985 ± 0.000311 kcal/mol
excess molar enthalpy ([2]; x1 = 0.9092): -0.006 ± 0.000239 kcal/mol

vapor or sublimation pressure ([1]; 288.15 K): 26.42 ± 0.062 kPa
vapor or sublimation pressure ([1]; 298.15 K): 40.13 ± 0.087 kPa
vapor or sublimation pressure ([1]; 308.15 K): 59.52 ± 0.12 kPa
Structure (SMILES): CC(C)(C)Cl [2-chloro-2-methylpropane]

excess molar enthalpy ([2]; x1 = 0.0907): -0.00722 ± 0.000263 kcal/mol
excess molar enthalpy ([2]; x1 = 0.1815): -0.0129 ± 0.000359 kcal/mol
excess molar enthalpy ([2]; x1 = 0.2726): -0.0175 ± 0.000454 kcal/mol
excess molar enthalpy ([2]; x1 = 0.3634): -0.0206 ± 0.000526 kcal/mol
excess molar enthalpy ([2]; x1 = 0.4544): -0.0227 ± 0.00055 kcal/mol
excess molar enthalpy ([2]; x1 = 0.5453): -0.0229 ± 0.000574 kcal/mol
excess molar enthalpy ([2]; x1 = 0.6361): -0.0219 ± 0.00055 kcal/mol
excess molar enthalpy ([2]; x1 = 0.727): -0.0189 ± 0.000478 kcal/mol
excess molar enthalpy ([2]; x1 = 0.8179): -0.0147 ± 0.000406 kcal/mol
excess molar enthalpy ([2]; x1 = 0.909): -0.00822 ± 0.000287 kcal/mol
Structure (SMILES): CC(C)CCl [1-chloro-2-methylpropane] + CC(C)OC(C)C

Structure (SMILES): CCCCCl [1-chlorobutane] + CC(C)OC(C)C
excess molar enthalpy ([2]; x1 = 0.0908): -0.00684 ± 0.000263 kcal/mol
excess molar enthalpy ([2]; x1 = 0.1817): -0.0131 ± 0.000382 kcal/mol
excess molar enthalpy ([2]; x1 = 0.2726): -0.0175 ± 0.000454 kcal/mol
excess molar enthalpy ([2]; x1 = 0.3636): -0.0209 ± 0.000526 kcal/mol
excess molar enthalpy ([2]; x1 = 0.4545): -0.0228 ± 0.000574 kcal/mol
excess molar enthalpy ([2]; x1 = 0.5453): -0.0228 ± 0.000574 kcal/mol
excess molar enthalpy ([2]; x1 = 0.6363): -0.0216 ± 0.00055 kcal/mol
excess molar enthalpy ([2]; x1 = 0.7273): -0.0188 ± 0.000478 kcal/mol
excess molar enthalpy ([2]; x1 = 0.818): -0.014 ± 0.000382 kcal/mol
excess molar enthalpy ([2]; x1 = 0.909): -0.00774 ± 0.000263 kcal/mol

vapor or sublimation pressure ([1]; 288.15 K): 12.65 ± 0.034 kPa
vapor or sublimation pressure ([1]; 298.15 K): 20 ± 0.047 kPa
vapor or sublimation pressure ([1]; 308.15 K): 30.46 ± 0.066 kPa
Structure (SMILES): CC(C)OC(C)C [diisopropyl ether]
